Test results taken from patent US12084420B2, “Indoline compounds for inhibiting KIF18A” (Volastra Therapeutics, Inc., priority 2021, dated 2024).
Like-named read-outs stand apart in the source and are kept apart here.

Key:
[1] = target: KIF18a-Microtubule Complex (Homo sapiens (Human), UniProt Q8NI77); assay: Binding kinetics to KIF18a-microtubule complex (global progress curve analysis); settings: for koff (off-rate from binding kinetics assay) / kon (on-rate from binding kinetics assay): global progress curve analysis; for Ki: read-out: KI (determined from binding kinetic assay koff/kon), koff/kon; for koff: read-out: koff (off-rate from binding kinetics assay)
Outline: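 kon and koff determined by global progress curve analysis, with ADP formation measured by ADP-Glo. Time- and dose-dependent progress curves were globally fitted to a Michaelis-Menten model with one-step slow-binding inhibition.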

hKIF18A (1-374) = hKIF18A (1-374) (Homo sapiens (Human), UniProt Q8NI77); assay: Inhibition of KIF18A microtubule-dependent ATPase activity (ADP-Glo); settings: KIF18A microtubule-dependent ATPase activity, biochemical assay
JIMT-1 cells = assay: Cell viability of KIF18a-sensitive cell lines, JIMT-1 (Cell Titre-Glo, 7 days); type: cell-based
Method: (§1) Cell Viability of KIF18a-Sensitive Cell Lines
(§2) Cell lines were seeded as follows 24 hours before compound treatment: HCC15 (Korean Cell Line Bank) 600 cell/well, 95 μL of RPMI-1640 media supplemented with 100 units/mL penicillin, 100 units/mL streptomycin and 10% FBS; NIH:OVCAR-3 (ATCC), 1000 cell/well, 95 μL of RPMI-1640 media supplemented with 100 units/mL penicillin, 100 units/mL streptomycin, 0.01 mg/mL bovine insulin, and 20% FBS; JIMT-1 (Addexbio) 1000 cell/well, 95 μL of DMEM media supplemented with 100 units/mL penicillin, 100 units/mL streptomycin, and 10% FBS.
(§3) Test compounds were added to cells in a 20× dilution scheme by adding 5 μL of serially diluted compound to the plate, and the treated cells were incubated for an additional 7 days in a 37° C., 5% CO2 incubator. DMSO was used as the negative control (0% effect), and wells omitting cells were used as the positive control (100% effect). The cells were incubated for seven days, and cell viability determined via the Promega Cell Titre-Glo® Assay kit. Luminescence units were converted to ATP concentrations via an ATP standard curve (10 point, 2-fold dilution from 5 uM). % Inhibition was calculated for each well as: ([max−min]−[test−min])/[max−min]. IC50 values were calculated from concentration vs. % Inhibition data via a four-parameter variable slope model.

HCC15 cells = assay: Cell viability of KIF18a-sensitive cell lines, HCC15 (Cell Titre-Glo, 7 days); type: cell-based
Method: as §1, §2, §3

NIH:OVCAR-3 cells = assay: Cell viability of KIF18a-sensitive cell lines, NIH:OVCAR-3 (Cell Titre-Glo, 7 days); type: cell-based
Method: as §1, §2, §3

[2] = JIMT-1 cells, 7 days, Cell Titre-Glo, read-out: JIMT-1 IC50
[3] = HCC-15 cells, 7 days, Cell Titre-Glo, read-out: HCC-15 IC50
[4] = NIH-OVCAR3 cells, 7 days, Cell Titre-Glo, read-out: NIH-OVCAR3 IC50
[5] = Homo sapiens, 168 h, JIMT-1 cells, 7 days, Cell Titre-Glo, read-out: JIMT-1 IC50
[6] = HCC15, 168 h, HCC-15 cells, 7 days, Cell Titre-Glo, read-out: HCC-15 IC50
[7] = Homo sapiens, OVCAR-3, 168 h, NIH-OVCAR3 cells, 7 days, Cell Titre-Glo, read-out: NIH-OVCAR3 IC50

Chain of hKIF18A (1-374) (Q8NI77 whole entry, looked up): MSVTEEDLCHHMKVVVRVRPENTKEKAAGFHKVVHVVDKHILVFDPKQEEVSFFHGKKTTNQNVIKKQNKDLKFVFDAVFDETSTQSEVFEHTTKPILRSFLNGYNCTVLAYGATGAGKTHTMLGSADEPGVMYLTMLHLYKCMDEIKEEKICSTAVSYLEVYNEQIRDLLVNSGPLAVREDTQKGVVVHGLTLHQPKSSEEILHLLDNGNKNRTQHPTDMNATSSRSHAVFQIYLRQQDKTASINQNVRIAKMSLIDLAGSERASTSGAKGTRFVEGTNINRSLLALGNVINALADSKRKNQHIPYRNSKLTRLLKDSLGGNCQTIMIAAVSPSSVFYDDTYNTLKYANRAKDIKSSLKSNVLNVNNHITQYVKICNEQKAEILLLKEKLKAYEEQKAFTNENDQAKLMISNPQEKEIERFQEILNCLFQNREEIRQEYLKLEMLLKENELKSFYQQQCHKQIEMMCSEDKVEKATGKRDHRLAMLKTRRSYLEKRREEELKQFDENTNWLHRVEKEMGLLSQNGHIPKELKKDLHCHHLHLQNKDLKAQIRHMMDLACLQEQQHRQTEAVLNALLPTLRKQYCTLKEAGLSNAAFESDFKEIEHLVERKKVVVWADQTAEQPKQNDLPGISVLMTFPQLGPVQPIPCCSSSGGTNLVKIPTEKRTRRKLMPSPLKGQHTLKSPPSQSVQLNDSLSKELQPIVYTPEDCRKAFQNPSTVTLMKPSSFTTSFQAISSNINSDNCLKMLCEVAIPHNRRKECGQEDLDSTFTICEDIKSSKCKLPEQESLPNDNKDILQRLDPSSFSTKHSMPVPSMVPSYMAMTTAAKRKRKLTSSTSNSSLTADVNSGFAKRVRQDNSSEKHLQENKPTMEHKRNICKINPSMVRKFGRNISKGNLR
Chain of hKIF18A (1-374) (Q2XVP4 whole entry partner, looked up): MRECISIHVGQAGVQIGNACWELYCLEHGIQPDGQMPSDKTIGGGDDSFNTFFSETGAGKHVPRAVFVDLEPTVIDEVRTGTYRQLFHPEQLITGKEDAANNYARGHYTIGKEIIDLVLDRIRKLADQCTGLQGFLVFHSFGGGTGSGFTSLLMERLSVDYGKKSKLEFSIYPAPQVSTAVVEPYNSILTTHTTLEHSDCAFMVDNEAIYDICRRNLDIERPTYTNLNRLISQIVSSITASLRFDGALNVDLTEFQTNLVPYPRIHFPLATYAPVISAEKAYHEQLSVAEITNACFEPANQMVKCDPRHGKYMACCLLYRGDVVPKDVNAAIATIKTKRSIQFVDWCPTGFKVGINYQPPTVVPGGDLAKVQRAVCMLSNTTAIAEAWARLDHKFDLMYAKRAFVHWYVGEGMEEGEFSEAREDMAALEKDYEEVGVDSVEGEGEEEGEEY
Chain of hKIF18A (1-374) (P02554 whole entry partner, looked up): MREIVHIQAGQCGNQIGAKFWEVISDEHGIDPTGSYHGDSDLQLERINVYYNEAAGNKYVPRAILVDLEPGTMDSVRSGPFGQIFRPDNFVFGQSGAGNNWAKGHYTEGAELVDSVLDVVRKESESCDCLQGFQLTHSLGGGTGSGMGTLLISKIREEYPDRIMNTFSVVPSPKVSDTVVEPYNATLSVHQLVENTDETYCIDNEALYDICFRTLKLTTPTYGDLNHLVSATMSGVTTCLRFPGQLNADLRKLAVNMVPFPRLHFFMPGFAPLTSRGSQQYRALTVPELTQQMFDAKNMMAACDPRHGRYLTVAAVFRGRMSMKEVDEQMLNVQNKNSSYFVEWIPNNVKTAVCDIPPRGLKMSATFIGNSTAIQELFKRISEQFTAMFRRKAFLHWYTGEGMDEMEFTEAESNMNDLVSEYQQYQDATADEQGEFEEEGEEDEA
Chain of KIF18a-Microtubule Complex (Q8NI77 whole entry, looked up): as the sequence (Q8NI77 whole entry, looked up) above
Chain of KIF18a-Microtubule Complex (Q2XVP4 whole entry partner, looked up): as the sequence (Q2XVP4 whole entry partner, looked up) above
Chain of KIF18a-Microtubule Complex (P02554 whole entry partner, looked up): as the sequence (P02554 whole entry partner, looked up) above

| kon (on-rate from binding kinetics assay) [1] | disc. t1/2 (dissociation half-life ln(2)/koff) ([1]; ln(2)/koff) | Ki [1] | IC50 (hKIF18A (1-374)) | koff [1] | IC50 (HCC15 cells; [6]) | IC50 (NIH:OVCAR-3 cells; [7]) | dissociation t1/2 ([1]; ln(2)/koff) | IC50 (HCC15 cells; HCC15, 168 h, read-out: IC50, cell viability HCC-15) | IC50 (NIH:OVCAR-3 cells; Homo sapiens, OVCAR-3, 168 h, read-out: IC50, cell viability NIH: OVCAR3) | Structure (SMILES) | koff (off-rate from binding kinetics assay) [1] | IC50 (JIMT-1 cells; [2]) | IC50 (HCC15 cells; [3]) | IC50 (NIH:OVCAR-3 cells; [4]) | IC50 (JIMT-1 cells; [5]) | IC50 (JIMT-1 cells; Homo sapiens, JIMT-1, 168 h, read-out: IC50, cell viability JIMT-1) |
| --- | --- | --- | --- | --- | --- | --- | --- | --- | --- | --- | --- | --- | --- | --- | --- | --- |
| 6390 M⁻¹ s⁻¹ | 7.9 h | 0.26 nM | 6.7 nM | 2.44e-05 s⁻¹ | 21 nM | 20 nM | – | – | – | CS(=O)(=O)Nc1ccc2c(c1)C1(CCC3(CC3)CC1)CN2C(=O)c1cccc(S(=O)(=O)NC23CC(C2)C3)c1 [Compound 223, N-(bicyclo[1.1.1]pentan-1-yl)-3-(5″-(methylsulfonamido)dispiro[cyclopropane-1,1′-cyclohexane-4′,3″-indoline]-1″-carbonyl)benzenesulfonamide] | – | – | – | – | 15 nM | – |
| 18300 M⁻¹ s⁻¹ | 10 h | 0.96 nM | 8.3 nM | 1.86e-05 s⁻¹ | 21 nM | 21 nM | – | – | – | CS(=O)(=O)Nc1ccc2c(c1)C1(CCC3(CC3)CC1)CN2C(=O)c1cccc(S(=O)(=O)N2CC(F)(F)C2)c1 [Compound 257, N-(1″-(3-((3,3-difluoroazetidin-1-yl)sulfonyl)benzoyl)dispiro[cyclopropane-1,1′-cyclohexane-4′,3″-indolin]-5″- yl)methanesulfonamide] | – | – | – | – | 12 nM | – |
| 10300 M⁻¹ s⁻¹ | 49 h | 0.38 nM | 17 nM | 3.89e-06 s⁻¹ | 11 nM | 10 nM | – | – | – | COc1ccc(C(=O)N2CC3(CCC4(CC4)CC3)c3cc(NS(C)(=O)=O)ccc32)cc1S(=O)(=O)NC(C)(C)C [Compound 297, N-(tert-butyl)-2-methoxy-5-(5″-(methylsulfonamido)dispiro[cyclopropane-1,1′-cyclohexane-4′,3″-indoline]-1″-carbonyl)benzenesulfonamide] | – | – | – | – | 9.8 nM | – |
| 10300 M⁻¹ s⁻¹ | 5.7 h | 3.3 nM | 21 nM | 3.33e-05 s⁻¹ | 43 nM | 40 nM | – | – | – | CS(=O)(=O)Nc1ccc2c(c1)C1(CCC3(CC3)CC1)CN2C(=O)c1cccc(S(=O)(=O)C2CC(F)(F)C2)c1 [Compound 322, N-(1″-(3-((3,3-difluorocyclobutyl)sulfonyl)benzoyl)dispiro[cyclopropane-1,1′-cyclohexane-4′,3″-indolin]-5″- yl)methanesulfonamide] | – | – | – | – | 32 nM | – |
| 16900 M⁻¹ s⁻¹ | 39 h | 0.29 nM | 6.2 nM | 5e-06 s⁻¹ | 11 nM | 13 nM | – | – | – | O=C(c1cccc(S(=O)(=O)C2CCCC2)c1)N1CC2(CCC3(CC3)CC2)c2cc(NS(=O)(=O)CCO)ccc21 [Compound 229, N-(1″-(3-(cyclopentylsulfonyl)benzoyl)dispiro [cyclopropane-1,1′-cyclohexane-4′,3″- indolin]-5″-yl)-2-hydroxyethane-1-sulfonamide] | – | – | – | – | 11 nM | – |
| 10600 M⁻¹ s⁻¹ | 33 h | 0.54 nM | 20 nM | 5.83e-06 s⁻¹ | 7.5 nM | 8 nM | – | – | – | CC(C)(C)NS(=O)(=O)c1cccc(C(=O)N2CC3(CCC4(CC4)CC3)c3cc(NS(=O)(=O)C4CC4)ccc32)c1 [Compound 160, N-(tert-butyl)-3-(5″- (cyclopropanesulfonamido)dispiro [cyclopropane-1,1′-cyclohexane-4′,3″- indoline]-1″- carbonyl)benzenesulfonamide] | – | – | – | – | 5.4 nM | – |

Continued, molecule first:

| Structure (SMILES) | kon (on-rate from binding kinetics assay) [1] | disc. t1/2 (dissociation half-life ln(2)/koff) ([1]; ln(2)/koff) | Ki [1] | IC50 (hKIF18A (1-374)) | koff [1] | IC50 (HCC15 cells; [6]) | IC50 (NIH:OVCAR-3 cells; [7]) | dissociation t1/2 ([1]; ln(2)/koff) | IC50 (HCC15 cells; HCC15, 168 h, read-out: IC50, cell viability HCC-15) | IC50 (NIH:OVCAR-3 cells; Homo sapiens, OVCAR-3, 168 h, read-out: IC50, cell viability NIH: OVCAR3) | koff (off-rate from binding kinetics assay) [1] | IC50 (JIMT-1 cells; [2]) | IC50 (HCC15 cells; [3]) | IC50 (NIH:OVCAR-3 cells; [4]) | IC50 (JIMT-1 cells; [5]) | IC50 (JIMT-1 cells; Homo sapiens, JIMT-1, 168 h, read-out: IC50, cell viability JIMT-1) |
| --- | --- | --- | --- | --- | --- | --- | --- | --- | --- | --- | --- | --- | --- | --- | --- | --- |
| CS(=O)(=O)Nc1ccc2c(c1)C1(CCC3(CC3)CC1)CN2C(=O)c1cccc([C@H](O)CC2CCC2)c1 (single isomer, unassigned) [Compound 305b] | 106000 M⁻¹ s⁻¹ | 0.49 h | 3.7 nM | 6.8 nM | – | – | – | – | – | – | 0.000389 s⁻¹ | 40 nM | 60 nM | 69 nM | – | – |
| CCS(=O)(=O)Nc1ccc2c(c1)C1(CCC3(CC3)CC1)CN2C(=O)c1cccc(S(=O)(=O)N2CC3(CCO3)C2)c1 [Compound 320, N-(1″-(3-((1-oxa-6-azaspiro[3.3]heptan-6-yl)sulfonyl)benzoyl)dispiro[cyclopropane-1,1′-cyclohexane-4′,3″-indolin]-5″- yl)ethanesulfonamide] | 7500 M⁻¹ s⁻¹ | 45 h | 0.57 nM | 18 nM | 4.17e-06 s⁻¹ | 21 nM | 20 nM | – | – | – | – | – | – | – | 14 nM | – |
| CS(=O)(=O)Nc1ccc2c(c1)C1(CCC3(CC3)CC1)CN2C(=O)c1cccc([C@@H](O)CC2CCC2)c1 (single isomer, unassigned) [Compound 305a] | 97200 M⁻¹ s⁻¹ | 0.56 h | 3.5 nM | 8.1 nM | – | – | – | – | – | – | 0.000361 s⁻¹ | 52 nM | 74 nM | 90 nM | – | – |
| CS(=O)(=O)Nc1ccc2c(c1)C1(CCC3(CC3)CC1)CN2C(=O)c1cccc(S(=O)(=O)NC2CC(F)(F)C2)c1 [Compound 192, N-(3,3-difluorocyclobutyl)-3-(5″- (methylsulfonamido)dispiro[cyclopropane-1,1′-cyclohexane-4′,3″-indoline]-1″-carbonyl)benzenesulfonamide] | 14400 M⁻¹ s⁻¹ | 21 h | 0.64 nM | 10 nM | 9.17e-06 s⁻¹ | 510 nM | 410 nM | – | – | – | – | – | – | – | 500 nM | – |
| CS(=O)(=O)Nc1ccc2c(c1)C1(CCC3(CC3)CC1)CN2C(=O)c1cccc(C(O)C2CCCC2)c1 (single isomer, unassigned) [Compound 165a] | 11900 M⁻¹ s⁻¹ | 3.8 h | 4.2 nM | 8.8 nM | – | – | – | – | – | – | 5e-05 s⁻¹ | 45 nM | 68 nM | 59 nM | – | – |
| CCS(=O)(=O)Nc1ccc2c(c1)[C@]1(CC[C@@H](C(F)F)CC1)CN2C(=O)c1cccc(S(=O)(=O)NC(C)(C)C)c1 [Compound 333a] | 7780 M⁻¹ s⁻¹ | 53 h | 0.47 nM | 18 nM | – | – | – | – | – | – | 3.61e-06 s⁻¹ | 24 nM | 22 nM | 17 nM | – | – |
| Cc1cc(NC(=O)c2ccc(NS(=O)(=O)CCO)cc2N2CCC3(CC2)CC3)nc(N2CCC(F)(F)CC2)n1 [AMG650, 2-{6-azaspiro[2.5]octan-6-yl}-N-[2-(4,4-difluoropiperidin-1-yl)-6-methylpyrimidin-4-yl]-4-(2-hydroxyethanesulfonamido)benzamide, reference compound] | – | – | – | – | – | – | – | 4.1 h | 66 nM | 100 nM | – | – | – | – | – | 130 nM |
